The subject of assay [1] is HSP72 induction (product of HSF1 transcriptional activity) in SK-OV-3 cells. The assay can be described thus: Cell-based ELISA (Cellisa) for HSP72 expression after 17-AAG. Further details: species or system human. The conditions noted are these: SK-OV-3 ovarian cancer cell line; summary of Table 1.
Procedure: Prior to use, the cells were analyzed by short tandem repeat (STR) profiling. Polymorphic STR loci were amplified using a polymerase chain reaction (PCR) primer set. The PCR product (each locus being labelled with a different fluorophore) was analyzed simultaneously with size standards using automated fluorescent detection. The number of repeats at 10 different loci (as recommended by the American Type Culture Collection, ATCC) was used to define the STR profile and this was cross-referenced with online databases to confirm authenticity. […] The cells were free of mycoplasma contamination as determined by a sensitive nested PCR protocol (Venor GeM kit, Minerva Biolabs, Germany). Cells were grown in DMEM/10% FCS, 2 mM glutamine and nonessential amino acids in 5% CO2.
Cell-Based ELISA (Cellisa) for HSP72 Expression
To follow HSP72 protein expression, a product of HSF1 transcriptional activity, the Cellisa was developed. […] The medium was removed and cells were fixed with fixing solution (4% paraformaldehyde, 0.3% TritonX-100 in PBS buffer) for 30 min at 4° C. The plates were then washed with 0.1% Tween-20/deionized water, before blocking with 5% milk for 30 mins at 37° C. […] Following 4× washes, the plates were incubated with europium-labelled anti-mouse antibody (0.6 μg/mL) in Delfia assay buffer (Perkin Elmer) for 1 h at 37° C. […]
Assay [2] deals with SK-OV-3 ovarian cancer cell line. The assay can be described thus: cells. Particulars: Homo sapiens, SK-OV-3, 96 h, read-out: SK-OV-3 pGI50 ± SEM (n) (converted). Type of assay: cell-based.
Procedure: Cells were grown in DMEM/10% FCS, 2 mM glutamine and nonessential amino acids in 5% CO2.
In Vitro Cell Viability Assay
The cell titer blue viability (CTB) (Promega) assay provides a homogenous, fluorometric method for estimating the number of viable cells. It uses the dark blue indicator dye resazurin to measure the metabolic capacity of cells which is an indicator of cell viability. Viable cells are able to reduce resazurin into resorufin (pink), which is highly fluorescent. […] Compounds (at a range of concentrations) were added using the ECHO 550 liquid handler (Labcyte, USA) and then left at 37° C. for 96 h. Titre blue reagent was added to each well and left at 37° C. for 3-4 h. Fluorescence was measured using the Envision machine (Perkin Elmer, UK). The 50% growth inhibitory concentration (GI50) was determined by fitting the data to a dose-response curve without limits using non-linear regression. Each concentration was tested twice.

For the compound `[2H]C([2H])([2H])C([2H])([2H])N1CCN(Cc2ccc3cc(C(=O)Nc4cc(NC(=O)c5ccc6c(c5)OCCO6)ccc4F)ccc3n2)CC1` [Compound A, N-(5-(2,3-Dihydrobenzo[b][1,4]dioxine-6-carboxamido)-2-fluorophenyl)-2-((4-ethyl-d5-piperazin-1-yl)methyl)quinoline-6-carboxamide], the “cellular activity (in words)” value in assay [1] is given as “potent cellular activity”.
Take `[2H]C1([2H])N(CC)C([2H])([2H])C([2H])([2H])N(Cc2ccc3cc(C(=O)Nc4cc(NC(=O)c5ccc6c(c5)OCCO6)ccc4F)ccc3n2)C1([2H])[2H]` [Compound B, N-(5-(2,3-Dihydrobenzo[b][1,4]dioxine-6-carboxamido)-2-fluorophenyl)-2-((4-ethyl-piperazin-d8-1-yl)methyl)quinoline-6-carboxamide]: the GI50 in assay [2] is 18.2 nM.
In the case of `[2H]C1([2H])Oc2ccc(C(=O)Nc3ccc(F)c(NC(=O)c4ccc5nc(CN6CCN(CC)CC6)ccc5c4)c3)cc2OC1([2H])[2H]` [Compound C, N-(5-(2,3-Dihydrobenzo-d4-[b][1,4]dioxine-6-carboxamido)-2-fluorophenyl)-2-((4-ethylpiperazin-1-yl)methyl)quinoline-6-carboxamide], the GI50 in assay [2] was 11.5 nM.

The values above are taken from patent US11814370B2, “Deuterated N-(5-(2,3-dihydrobenzo[b][1,4]dioxine-6-carboxamido)-2-fluorophenyl)-2-((4-ethylpiperazin-1-yl)methyl)quinoline-6-carboxamide” (priority 2016, dated 2023).
